The subject of the assay is 556581-035-R-J1 tumor spheroid viability, % test/control. The experiment in a line: Anticancer human tumor 556581-035-R-J1 patient-derived ovarian carcinoma cell line growth inhibition. The settings on record: spheroids with HUVEC and MSC; for viability, T/C: stronger effect = lower value. From the text:
Multicellular complex tumor spheroid response to DNA repair inhibitors in combination with DNA-damaging drugs
This study explores the anticancer activities of DNA-damaging drugs and inhibitors of DNA damage repair, both as single agents and in combinations. Complex tumor spheroids comprised of malignant cells, endothelial cells and mesenchymal stem cells served as an in vitro model for human solid tumors. This model system incorporates physiologically relevant features and patient-derived or established malignant cell lines with clinically relevant genetic alterations from many tumor types. Twenty-six patient-derived or established malignant cell lines were evaluated representing sarcoma, melanoma, small cell lung cancer (SCLC), non-small cell lung cancer (NSCLC), as well as bladder, ovarian and pancreatic cancers. The concentration ranges selected for each drug and investigational agent were based upon clinically achievable concentrations if the clinical Cmax of the agent was known.
Compounds. The drugs and compounds olaparib (NSC753686), talazoparib (NSC767125), berzosertib (NSC777718), elimusertib (NSC800525), nedisertib (NSC802822), VX-984 (NSC792969), AZD-1390 (NSC803789), temozolomide (NSC362856), topotecan (NSC609699), trabectedin (NSC813783), staurosporine (NSC755774), and gemcitabine (NSC613327) were obtained from the National Cancer Institute (NCI) Developmental Therapeutics Program Chemical Repository. The FDA-approved anticancer drug set is available from the Developmental Therapeutics Program at https://dtp.cancer.gov/organization/dscb/obtaining/available_plates.htm. […] The stock solutions were prepared in dimethyl sulfoxide (DMSO, Sigma-Aldrich, St. Louis, MO, cat. D2650) at 400-fold the tested concentration and stored at -70 degrees C. Prior to their use, the stock solutions were diluted in fresh medium and the final DMSO concentration in the assay was 0.25% (v/v). All drugs and investigational agents were tested over a range starting from a high concentration at or near the clinical Cmax and decreasing in half-log increments. If the clinical Cmax for an agent had not been determined, the highest concentration tested was 10 microM.
Cell Lines. The patient-derived cancer cell (PDC) lines: 156681-154-R-J1-PDC, 283228-195-R-J1-PDC, 287954-098-R-J1-PDC, 292921-168-R-J2-PDC, 349418-098-R-PDC, 425362-245-T-J1-PDC, 556581-035-R-J1-PDC, and BL0293-F563-PDC were received from the NCI Patient-Derived Models Repository (PDMR, https://pdmr.cancer.gov). The established cell lines HS-SY-2 (RRID:CVCL_8719), MPNST, and SYO-1 (RRID:CVCL_7146) were obtained from the Sloan Kettering Institute. The alveolar soft parts sarcoma cell line ASPS-1 (RRID:CVCL_S738) was established at the NCI and grown from internal seed stocks. The following established cell lines were purchased from the American Type Culture Collection (ATCC, Manassas, VA): G-401 (ATCC, cat. CRL-1441, RRID:CVCL_0270), SW982 (ATCC, cat. HTB-93, RRID:CVCL_1734), VA-ES-BJ (ATCC, cat. CRL-2138, RRID:CVCL_1785), NCI-H719 (ATCC, cat. CRL-5837, RRID:CVCL_1582), NCI-H196 (ATCC, cat. CRL-5823, RRID:CVCL_1509), NCI-H841 (ATCC, cat. CRL-5845, RRID:CVCL_1595), NCI-H1618 (ATCC, cat. CRL-5879, RRID:CVCL_1480), NCI-H1876 (ATCC, cat. CRL-5902, RRID:CVCL_1503), DMS 114 (ATCC, cat. CRL-2066; RRID:CVCL_1174), NCI-H211 (ATCC, cat. CRL-5824; RRID:CVCL_1529), and SW 1271 (ATCC, cat. CRL-2177, RRID:CVCL_1716). The small cell lung cancer cell line COR-L88 was purchased from Sigma-Aldrich (cat. 92031917-1VL, RRID:CVCL_1141). The non-small cell lung cancer cell lines NCI-H226 (RRID:CVCL_1544) and NCI-H322M (RRID:CVCL_1557) were established at the NCI and grown from internal seed stocks. Pooled donor human umbilical vein endothelial cells (HUVEC, Lonza, cat. CC-2519) and human mesenchymal stem cells (hMSC, Lonza, cat. PT-2501) were purchased from Lonza (Walkersville, MD).
Cell Culture. All cells were maintained in an incubator at 37 degrees C and 5% CO2 with 95% humidity. […]

Where [1] appears, read: compound alone, run of 10/17/2019.
[2] abbreviates: compound alone, run of 10/25/2019.

These results are taken from PubChem BioAssay AID1845199 (Molecular Pharmacology Branch, DTP, NCI, 2023).

Where “and” joins values, the source holds several entries; their conditions need not be identical. Equal entries are not always repeated.

One may read the viability, T/C as the result in the treated group divided by that in the control group, in per cent. As a reminder, the IC50 is the concentration that gives 50% inhibition.
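Further: spheroids exposed to compounds for 7 days before viability read.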

Take `CC(C)n1c(=O)n(C)c2cnc3cc(F)c(-c4ccc(OCCCN5CCCCC5)nc4)cc3c21`: the viability, T/C (compound 0.0316 µM) is 104% and 103% and 102%; the viability, T/C (compound 0.1 µM) was 109% and 106% and 112%; the viability, T/C (compound 0.316 µM) was 95.9% and 108% and 103%; the viability, T/C (compound 1 µM) is 105% and 114% and 101%; the viability, T/C (compound 3.16 µM) was 100% and 99.6% and 95.5%; the viability, T/C (compound 10 µM) is 74.3% and 73.2% and 69%. Moreover, the concentration for half-maximal inhibition (IC50) (curve of compound) was above 10 µM.

Take `CC1COCCN1c1cc(-c2ccnn2C)c2ccnc(-c3ccn[nH]3)c2n1` (stereo not given): the viability, T/C by setting is: (compound 0.0316 µM) 95.7% and 92.7% and 89.5%; (compound 0.1 µM) 76.3% and 75.8% and 79.5%; (compound 0.316 µM) 56.5% and 57.8% and 55.5%; (compound 1 µM) 45.5% and 44.4% and 41.9%; (compound 3.16 µM) 39.9% and 39% and 33.9%; (compound 10 µM) 35.6% and 32.5% and 30.2%. For the same compound, where the note is “curve of compound”, the 50% inhibitory concentration (IC50) is 0.636 µM and 0.647 µM and 0.521 µM.

On to `CC[C@@]1(O)C(=O)OCc2c1cc1n(c2=O)Cc2cc3c(CN(C)C)c(O)ccc3nc2-1`, for which the viability, T/C runs as follows: (compound 0.003 µM) 101% [middle of 10 runs]; (compound 0.03 µM) 74.6% [middle of 10 runs]; (compound 0.0949 µM) 58.5% [middle of 10 runs]; (compound 0.3 µM) 16.5% [middle of 10 runs]. Besides, the IC50 reads like this: under setting [1], 121 nM [middle of 4 runs]; under setting [2], 80.7 nM [middle of 5 runs].

Regarding `CNCc1ccc(-c2cc(-c3nc(-c4ccc(S(=O)(=O)C(C)C)cc4)cnc3N)on2)cc1`, the viability, T/C was 107% and 97.6% and 104% (compound 0.00949 µM); 105% and 95.6% and 111% (compound 0.03 µM); 103% and 115% and 108% (compound 0.0949 µM); 106% and 112% and 108% (compound 0.3 µM); 66.6% and 80.3% and 75.4% (compound 0.949 µM); 20.2% and 19.4% and 27.6% (compound 3 µM). Besides, the IC50 (curve of compound) is 1.43 µM and 1.68 µM and 1.75 µM.

For the compound `COc1cc(C)[nH]c(=O)c1CN1CCc2c(Cl)cc(C(OC)C3COC3)c(Cl)c2C1=O` (stereo not given), the viability, T/C by setting is: (compound 0.0316 µM) 103% and 105% and 98.8%; (compound 0.1 µM) 110% and 101% and 105%; (compound 0.316 µM) 107% (2×) and 99.8%; (compound 1 µM) 111% and 108% and 102%; (compound 3.16 µM) 114% and 107% and 96.9%; (compound 10 µM) 106% and 99.4% and 98.3%. For the same compound, the IC50 (curve of compound) was above 10 µM.

`COc1cc2c(cc1O)CCNC21CSC2c3c(OC(C)=O)c(C)c4c(c3C(COC1=O)N1C(O)C3Cc5cc(C)c(OC)c(O)c5C(C21)N3C)OCO4` (stereo not given): the viability, T/C (compound 94.9 pM) was 106% [middle of 10 runs]; the viability, T/C (compound 0.0003 µM) was 95.4% [middle of 10 runs]; the viability, T/C (compound 0.000949 µM) was 41% [middle of 10 runs]; the viability, T/C (compound 0.003 µM) was 0.66% [middle of 10 runs]. For the same compound, under setting [2], the half-inhibitory concentration (IC50) was 0.795 nM [middle of 10 runs].

As for `COc1ccc([C@@H](O)c2cc(-c3ncnc4cc(N5CCOCC5)ccc34)c(F)cc2Cl)nn1`, the viability, T/C is, setting by setting: (compound 0.0316 µM) 103% and 102% and 98.8%; (compound 0.1 µM) 104% and 111% and 99.6%; (compound 0.316 µM) 81.3% and 90.1% and 91%; (compound 1 µM) 61.1% and 70.3% and 64.7%; (compound 3.16 µM) 40.9% and 49.5% and 41.4%; (compound 10 µM) 31.9% and 35.1% and 31.1%. For the same compound, the IC50 (curve of compound) is 1.81 µM and 2.83 µM and 2.02 µM.

In the case of `Cc1cc(C)c(CNC(=O)c2cc(-c3ccc(CN4CCOCC4)cc3)cc3c2cnn3C2CCCC2)c(=O)[nH]1`, the viability, T/C (compound 0.0316 µM) was 103% and 104% and 86.6%; the viability, T/C (compound 0.1 µM) was 108% and 103% and 97.3%; the viability, T/C (compound 0.316 µM) is 112% and 108% and 97.3%; the viability, T/C (compound 1 µM) is 115% and 102% and 120%; the viability, T/C (compound 3.16 µM) is 104% and 105% and 107%; the viability, T/C (compound 10 µM) is 89.3% (2×) and 93.4%. For the same compound, the concentration for half-maximal inhibition (IC50) (curve of compound) is above 10 µM.

`Cc1sc2c(c1C)C(c1ccc(Cl)cc1)=NC(CC(=O)Nc1ccc(O)cc1)c1nnc(C)n1-2` (stereo not given): the viability, T/C by setting is: (compound 0.00949 µM) 102% and 101% and 103%; (compound 0.03 µM) 98.1% and 83.8% and 103%; (compound 0.0949 µM) 82.5% and 90.3% and 88.8%; (compound 0.3 µM) 74.5% and 89.5% and 82.5%; (compound 0.949 µM) 71.8% and 76.6% and 76%; (compound 3 µM) 66.2% and 70.1% and 71.4%. Further, the IC50 (curve of compound) was above 3 µM.

Regarding `Cn1ncnc1[C@H]1c2n[nH]c(=O)c3cc(F)cc(c23)N[C@@H]1c1ccc(F)cc1`, the viability, T/C reads like this: (compound 0.00949 µM) 110% and 95.9% and 100%; (compound 0.03 µM) 107% and 97.1% and 105%; (compound 0.0949 µM) 102% and 89.2% and 95.8%; (compound 0.3 µM) 97.6% and 80.2% and 83.6%; (compound 0.949 µM) 77.9% and 69.9% and 76%; (compound 3 µM) 60.8% and 52.1% and 56.5%. Also, the half-maximal inhibitory concentration (IC50) (curve of compound) was above 3 µM.

With `Cn1nnc2c(C(N)=O)ncn2c1=O`, the viability, T/C is, setting by setting: (compound 1 µM) 103% [middle of 10 runs]; (compound 10 µM) 104% [middle of 10 runs]; (compound 31.6 µM) 107% [middle of 10 runs]. Further, the half-maximal inhibitory concentration (IC50) under setting [1] is above 100 µM.

Take `O=C(c1cc(Cc2n[nH]c(=O)c3ccccc23)ccc1F)N1CCN(C(=O)C2CC2)CC1`: the viability, T/C reads like this: (compound 0.0949 µM) 100% and 105% and 95.8%; (compound 0.3 µM) 97.9% and 107% and 110%; (compound 0.949 µM) 98.4% and 102% and 100%; (compound 3 µM) 90% and 103% and 96.5%; (compound 9.49 µM) 75.5% and 90.5% and 81.3%; (compound 30 µM) 64.7% and 72.9% and 67.7%. In addition, the IC50 (curve of compound) is above 30 µM.

On to `[2H]c1nc(C)nc([2H])c1-c1cc(NC[C@@H](C)c2cccc3c(C(=O)NC)ccnc23)ncn1`, for which the viability, T/C was 112% and 111% and 102% (compound 0.0316 µM); 111% and 107% (2×) (compound 0.1 µM); 108% and 109% and 110% (compound 0.316 µM); 113% and 105% and 101% (compound 1 µM); 116% and 106% and 105% (compound 3.16 µM); 115% and 111% and 105% (compound 10 µM). The IC50 (curve of compound) is above 10 µM.
